Data set [1] deals with poliovirus Sabin strain 1 (PV1). The experiment in a line: microbe, parasite or virus in culture. Format: cell-based. The note with it: for EC50: Enterovirus C, HeLa, 72 h, read-out: EC50 PV1.
The test system of data set [2] is poliovirus Sabin strain 2 (PV2). The experiment in a line: microbe, parasite or virus in culture. The settings on record: Enterovirus C, HeLa, 72 h, read-out: EC50 PV2. The class given is cell-based.
For data set [3], the system named is poliovirus Sabin strain 3 (PV3). The experiment in a line: microbe, parasite or virus in culture. The class given is cell-based. The settings on record: Enterovirus C, HeLa, 72 h, read-out: EC50 PV3.
Data set [4] relates to poliovirus Sabin strains 1, 2, and 3. Briefly: microbe, parasite or virus in culture. The class given is cell-based. The settings on record: for EC50: Enterovirus C, read-out: EC50.
Another data set in a line: in vitro. The note with it: human.
The conditions of data set [5]: in vivo; cited from earlier work.
The conditions of data set [6]: cited from earlier work.
A further data set has as its system poliovirus 1 Sabin. The class given is cell-based.
Another data set concerns PV. The note with it: in vivo; cited from earlier work.

For orientation: EC50 means the midpoint of the concentration-response curve.

“Also recorded” adds a separate entry of the source. Like-named read-outs stand apart in the source and are kept apart here.

Turning to `C[C@@]1(O)[C@H](O)[C@@H](CO)O[C@H]1n1cnc2c(N)ncnc21` [2'-C-methyladenosine, 2′-C-methyladenosine], the EC50 is 5.5 µM in data set [1], 5.6 ± 0.1 µM in data set [2], 5.4 ± 0.4 µM in data set [3] and around 5 µM in data set [4]. For the same compound, in the data set “in vitro”, the CC50 is 84 µM.
Consider `C[C@@]1(O)[C@H](O)[C@@H](CO)O[C@H]1n1ccc(N)nc1=O` [2'-C-methylcytidine, 2′-C-methylcytidine], for which the EC50 was 15 ± 18 µM in data set [1], 29 ± 27 µM in data set [2], 3.9 ± 2.3 µM in [3] and 3.9 to 29 µM in data set [4]. Moreover, the CC50 in the data set “in vitro” is above 100 µM.
Regarding `[N-]=[N+]=N[C@]1(CO)O[C@@H](n2ccc(N)nc2=O)[C@H](O)[C@@H]1O` [4’-azidocytidine, 4′-azidocytidine], the EC50 in [1], in [2] and in data set [3] was above 100 µM in each case. Further, in data set [4], the “anti-PV activity” value was “inactive; also recorded: devoid of anti-PV activity”. In “in vitro”, this compound had a CC50 above 100 µM.
For the compound `C#CCC(C(=O)NC(C=CC(=O)OCC)CC1CCNC1=O)n1cccc(NC(=O)c2cc(C)on2)c1=O` (stereo not shown) [Compound 1], the concentration giving a half-maximal response (EC50) in data set [1] is 0.26 ± 0.24 µM; in data set [4], below 1 µM. Further, in the data set on HeLa cells (ATCC CCL-2), the “cytotoxicity” value is recorded as “without any signs of cytotoxicity”. Besides, in “in vitro”, the CC50 was above 100 µM. Further, the oral bioavailability result in data set [5] is listed as “excellent”.
In the case of `CC(C)S(=O)(=O)n1c(N)nc2ccc(/C(=N/O)c3ccccc3)cc21` [Enviroxime], the EC50 in [1] is 0.2 ± 0.25 µM; in [2] it was 0.056 ± 0.02 µM; in data set [3], 0.035 ± 0.029 µM; in data set [4], 0.035 to 0.2 µM. The compound also yielded a CC50 in the data set “in vitro” of 58 ± 6 µM. Also, the activity in vivo result in data set [6] was “weak to moderate”. Further, the toxicity in vivo result in [6] is given as “toxicity”.
For the compound `OC(c1ccccc1)c1nc2ccccc2[nH]1` (stereo not drawn) [HBB, 2-(α-hydroxybenzyl)-benzimidazole], the concentration for a half-maximal effect (EC50) in data set [1] was 300 ± 68 µM; in data set [2], 225 ± 128 µM; in data set [3], 295 ± 88 µM; in data set [4] it was 200 to 300 µM. This compound gave a CC50 in the data set “in vitro” above 400 µM.
`N#Cc1cc([N+](=O)[O-])ccc1Oc1ccc(Cl)c(Cl)c1` [MDL-860, 2-(3,4-dichlorophenoxy)-5-nitrobenzonitrile]: the EC50 in data set [1] was 6 ± 1.6 µM; in data set [2], 3.6 ± 2.2 µM; in data set [3], 2.2 ± 1.5 µM. Further, the CC50 in the data set “in vitro” is above 100 µM.
Take `N=c1ccn(Cc2nc3ccccc3n2-c2ccc(F)cc2)cc1` [MRL-1237]: the EC50 in [1] was determined as 5.3 ± 0.3 µM; in data set [2], 4.6 ± 1.4 µM; in [3] it was 3.8 ± 2.5 µM. In addition, in the data set “in vitro”, the CC50 is above 100 µM.
With `CCOC(=O)c1ccc(OCCC2CCN(c3ccc(C)nn3)CC2)cc1` [Pirodavir (R77975)], the EC50 in data set [1] was 10 ± 1 µM; in [2] it was 1.7 ± 0.1 µM; in [3] it was 0.56 ± 0.03 µM; in data set [4] (HeLa), below 2 µM. Besides, the CC50 in “in vitro” was above 100 µM. In addition, the “metabolic stability after oral administration” value in [5] is reported as “metabolic instability”.
As to `CCOC(=O)c1ccc(OCCCC2CCN(c3ccc(C)nn3)CC2)cc1` [Pirodavir analog (R78206)], the “Inhibitory activity against PV1” value in [1] is given as “exhibited inhibitory activity”. For the same compound, the EC50 in data set [1] is 0.76 ± 0.18 µM; in data set [2], 0.22 ± 0.19 µM; in data set [3], 0.11 ± 0.1 µM; in data set [4] (HeLa), below 2 µM. Further, the CC50 in the data set “in vitro” came out at 27 ± 34 µM.
For `Cc1cc(CCCOc2c(C)cc(-c3noc(C(F)(F)F)n3)cc2C)on1` [Pleconaril], the “Inhibitory activity against PV1” value in data set [1] was “inactive”. Besides, the EC50 in [1] was above 100 µM; in data set [2], 1.1 ± 0.6 µM; in data set [3] it was 0.22 ± 0.15 µM; in data set [4] (HeLa), below 2 µM. Moreover, in the data set with poliovirus 1 Sabin, the “reduction of infectious virus yield” value is recorded as “not able to reduce infectious virus yield”. In the data set on PV, the “benefit of treatment in a persistently infected person” value was “no benefit”. The “virus excretion in a child persistently infected with PV” value in the data set with PV is given as “effective in stopping virus excretion”. This compound also yielded a CC50 in the data set “in vitro” of 66 ± 6 µM.
On to `NC(=O)c1ncn([C@@H]2O[C@H](CO)[C@@H](O)[C@H]2O)n1` [Ribavirin], for which the EC50 in data set [1] was 57 ± 13 µM; in data set [2], 64 ± 4 µM; in [3], 55 ± 7 µM; in data set [4] it was 50 to 60 µM. This compound showed a CC50 in the data set “in vitro” above 100 µM.
In the case of `CCOC(=O)/C=C/[C@H](C[C@@H]1CCNC1=O)NC(=O)[C@@H](CC(=O)[C@@H](NC(=O)c1cc(C)on1)C(C)C)Cc1ccc(F)cc1` [Rupintrivir], the figures for the EC50 in [1], in [2] and in [3] were 0.022 ± 0.028 µM, 0.041 ± 0.024 µM and 0.0052 ± 0.0046 µM, respectively. In the data set on poliovirus 1 Sabin, the “decrease of infectious virus production” value amounted to 6 log10. Besides, the “reduction of virus progeny formation” value with poliovirus 1 Sabin is 10–1,000 fold. Also, the “cytotoxicity” value with HeLa cells (ATCC CCL-2) is listed as “without any signs of cytotoxicity”. In the data set “in vitro”, this compound had a CC50 above 100 µM.

(Values after paper PMC2570929 (Emerging Infectious Diseases, 2008).)
